# In patent US9067934B2, “Bicyclic pyridinones” (Pfizer Inc., priority 2011, dated 2015):
# Structures can show the parent of a compound that is named as a salt.
# System: production of amyloid beta protein Aβ(1-42) (γ-secretase) in human WT-APP overexpressing CHO cells
# Test: Cell-Based γ-Secretase Assay with ELISA Readout
# Conditions: CHO, 24 h, read-out: Aβ 42B IC50 (Geometric Mean of 2-6 Determinations)
# Outline: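 Human WT-APP-overexpressing CHO cells were pre-cultured 24 h at 37° C, then exposed to compounds (eleven-point half-log series, 1% final DMSO) for ~24 h. Aβ(1-42) in conditioned media was captured with Aβ(1-42)-specific antibody and detected with Eu-labeled 6e10 by DELFIA TRF. IC50 by nonlinear regression against min/max inhibition controls.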
row,Compound,IC50
1,"Cc1cn(-c2ccc3n(c2=O)CCN(CCOc2ccccc2[Si](C)(C)C)C3=O)cn1 [Example 121, 7-(4-methyl-1H-imidazol-1-yl)-2-{2-[2-(trimethylsilyl)phenoxy]ethyl}-3,4-dihydro-2H-pyrido[1,2-a]pyrazine-1,6-dione]",30.2 nM

# Same assay, conditions: human WT-APP overexpressing CHO cells, ~24 hours at 37° C., Aβ(1-42) ELISA; footnotes: a = geometric mean of >15 determinations, b = single determination, c = geometric mean of 7-15 determinations; read-out: Aβ 42B IC50 (Geometric Mean of 2-6 Determinations)
row,Compound,IC50
1,"Cc1cn(-c2ccc3n(c2=O)CCN([C@@H](C)COc2ccc(F)cc2[C@@H](C)C(F)(F)F)C3=O)cn1 [Example 118, 2-[(2S)-1-{4-Fluoro-2-[(2R)-1,1,1-trifluoropropan-2-yl]phenoxy}propan-2-yl]-7-(4-methyl-1H-imidazol-1-yl)-3,4-dihydro-2H-pyrido[1,2-a]pyrazine-1,6-dione]",< 6.64 nM
2,"Cc1cn(-c2ccc3n(c2=O)CCN([C@@H](C)COc2ccc(Cl)cc2S(F)(F)(F)(F)F)C3=O)cn1 [Example 119, 2-{(2S)-1-[4-Chloro-2-(pentafluoro-λ^6-sulfanyl)phenoxy]propan-2-yl}-7-(4-methyl-1H-imidazol-1-yl)-3,4-dihydro-2H-pyrido[1,2-a]pyrazine-1,6-dione]",7.49 nM
3,"Cc1cn(-c2ccc3n(c2=O)CCN([C@@H](C)COc2ccccc2S(F)(F)(F)(F)F)C3=O)cn1 [Example 120, 7-(4-methyl-1H-imidazol-1-yl)-2-{(2S)-1-[2-(pentafluoro-λ^6-sulfanyl)phenoxy]propan-2-yl}-3,4-dihydro-2H-pyrido[1,2-a]pyrazine-1,6-dione]",17.8 nM
4,"Cc1cn(-c2ccc3n(c2=O)CCN(CCOc2ccc(F)cc2C2(C(F)(F)F)CCO2)C3=O)cn1 (stereo not drawn) [Example 122, 2-(2-{4-fluoro-2-[2-(trifluoromethyl)oxetan-2-yl]phenoxy}ethyl)-7-(4-methyl-1H-imidazol-1-yl)-3,4-dihydro-2H-pyrido[1,2-a]pyrazine-1,6-dione, trifluoroacetate salt]",85.6 nM
5,"Cc1cn(-c2ccc3n(c2=O)CCN(C(C)C(C)Oc2ccccc2S(F)(F)(F)(F)F)C3=O)cn1 (stereo not drawn) [Example 123, 7-(4-methyl-1H-imidazol-1-yl)-2-{3-[2-(pentafluoro-λ^6-sulfanyl)phenoxy]butan-2-yl}-3,4-dihydro-2H-pyrido[1,2-a]pyrazine-1,6-dione]",106 nM
